From paper PMC9888480, “Carboranyl-1,8-naphthalimide intercalators induce lysosomal membrane permeabilization and ferroptosis in cancer cell lines” (Journal of Enzyme Inhibition and Medicinal Chemistry, 2023) come the findings set out here.

For assay [1], the system named is ct-DNA. In words: UV–vis spectra titration with ct-DNA (binding constant Kb). Conditions: for bathochromic effect: UV–vis, addition of 1.25–15 µM ct-DNA to 10 µM compound; for Kb compared to that of mitonafide: mitonafide Kb 2.54 × 10^5. Also noted: species or system calf. As to the method: The measurements were performed by adding aliquots of DMSO stock solution of the tested compounds to the buffer solution (pH 7.4, 20 mM, 50 mM NaCl, Tris–HCl buffer, DMSO content of the final solutions = 0.54–0.65%) to the final concentration 10 µM. The tested compounds were incubated for 5 min, with increasing concentrations ranging from 0 to 15 µM of ct-DNA at 37 °C. Then, the UV–vis absorption spectra between 300 and 500 nm were recorded using a GBC Cintra10 UV–VIS spectrometer equipped with a GBC Thermocell Peltier Power Supply with the use of a 1-cm-path-length cell. The binding constant was calculated according to the following equation[70]: A0/A−A0= εG/εH−G−εG+ εG/εH−G−εG × 1/Kb[DNA] where Kb is the binding constant; A0 and a are absorbances of the free tested compound and the apparent one; εG and εH–G are their coefficient, respectively; [DNA] is the concentration of DNA in base pairs. The slope to intercept ratio of the plot between A0/A − A0 and 1/[DNA] yielded the binding constant.

The subject of assay [2] is ct-DNA. Description: Circular dichroism (CD) measurements of ct-DNA. It is filed as binding, calf. Conditions: increasing concentration of conjugate, r = 0.1–0.5, cacodylate buffer pH 7.0. As to the method:
The measurements were performed by adding aliquots of DMSO stock solution of the tested compounds to the buffer solution (pH 7.0, 20 mM, cacodylate buffer, DMSO content of the final solutions = 0.22–1.30%). Changes in the CD spectrum of ct-DNA upon the addition of compound were measured at different molar ratios r = [compound]/[ct-DNA]. CD spectra were recorded on a JASCO J-815 CD spectrometer with a JASCO PFD-425S Peltier thermostated cell holder (JASCO, Tokyo, Japan) by using a square quartz cuvette of path length 0.5 cm (0.5 ml) in the 230–400 nm region. The CD profiles reported were an average of three successive scans with a scan time of 200 nm per minute and an appropriately corrected baseline. Temperature was maintained at 20 °C during the experiment.
A general note: CD spectra are sensitive to the conformation of chiral molecules.

The subject of assay [3] is HepG2 cells. Description: Oxidative stress (ROS) measurement by flow cytometry (H2DCFDA). The following applies: HepG2, 24 h, total IC50 concentration. The format is cell-based, human. As to the method:
The HepG2 cells were seeded (2 × 10^5 cells/well) onto 12-well plates and cultured in supplemented EMEM at 37 °C under 5% CO2 saturation until 70–80% confluency was reached. […] The intracellular ROS level was analysed by staining with H2DCFDA (ex/em: ∼492–495/517–527 nm) in accordance with the manufacturer’s protocol (Thermo Fisher Scientific, Waltham, MA, USA), wherein ROS trigger the fluorescence. The cells were separated by trypsin (Corning®) and washed twice with DPBS (1 ml, Capricorn). The pelleted cells were suspended in 0.5 ml of DPBS containing H2DCFDA at the final concentration of 0.5 µM. In order to eliminate dead cells from analysis, propidium iodide (10 µg/ml) was also added to the staining mix. The cells were then incubated at 37 °C for 30 min in the dark and then analysed with excitation at 488 nm using a FACSCalibur flow cytometer (Becton Dickinson, Franklin Lakes, NJ, USA), and the data were analysed using the FlowJo software (Becton Dickinson).
A general note: In flow cytometry, cells or beads pass a laser one at a time.

Assay [4] concerns HepG2 cells. Description: Apoptosis/necrosis assay by flow cytometry (YO-PRO-1/PI). The format is cell-based, human. Conditions: HepG2, 24 h, YO-PRO1/PI; for early apoptotic cells: half and total IC50 concentrations tested. The procedure:
Apoptosis/necrosis assay was carried out by double staining of cells with YO-PRO-1 (Thermo Fisher Scientific) and propidium iodide (PI, Sigma-Aldrich) fluorescent dyes. Briefly, HepG2 cells (2 × 10^5) were seeded onto 6-well plates. […] Subsequently, the cells were detached with trypsin (Thermo Fisher Scientific), washed twice with DPBS (1 ml) (Thermo Fisher Scientific), and stained with YO-PRO-1 (0.5 µM) and PI (10 µg/ml) according to the manufacturer’s protocol for 30 min at 37 °C in the dark. Immediately after staining, the cells were analysed with 488 nm excitation using a FACSCalibur flow cytometer (Becton Dickinson), and data were analysed using the FlowJo software (Becton Dickinson).

For assay [5], the system named is ct-DNA. Description: Melting temperature (Tm) measurements of ct-DNA. The following applies: r = [compound]/[ct-DNA] = 0.3, cacodylate buffer pH 7.0; Tm of free ct-DNA 74 °C; error ±0.5 °C. The format is binding, calf. The procedure:
The measurements were carried out by adding aliquots of DMSO stock solution of the tested compounds to the buffer solution (pH 7.0, 20 mM, cacodylate buffer, DMSO content of the final solution = 0.33–0.39%). Tm curves were collected at r = 0.3 (r = [compound]/[ct-DNA]) to assure the dominant binding mode. Thermal melting curves were plotted considering the absorption change at 260 nm as a function of temperature using a GBC Cintra10 UV–VIS spectrometer (Dandenong, Australia) equipped with a GBC Thermocell Peltier Power Supply (Dandenong, Australia) with the use of a 1-cm-path-length cell. The absorbance of the samples was monitored at 260 nm from 35 to 95 °C with a heating rate of 1 °C/min. Tm values are the midpoints or the transition curves determined from the maximum of the first derivative. ΔTm values were calculated by subtracting the Tm of the free nucleic acid from the Tm of the sample. All ΔTm values reported in the study were measured in triplicate. The error in ΔTm was ±0.5 °C.

For assay [6], the system named is HepG2 cells. In words: Real-time cell migration assay (xCELLigence). It is filed as cell-based, human. Conditions: one-fourth and half of IC50, 24 h pre-treatment. The procedure: Transwell cell migration experiments were performed using an xCELLigence RTCA Analyser (Roche, Switzerland) in CIM plates (ACEA Biosciences, San Diego, CA, USA). Each well consisted of an upper and a lower chamber separated by a microporous polyethylene terephthalate membrane containing randomly distributed 8-µm pores. Prior to the migration assay, the HepG2 cells (2 × 10^4) were seeded onto 48-well plates containing the growth medium (EMEM) and incubated until 70–80% confluency at 37 °C in a humidified atmosphere containing 5% CO2. […] Then, 160 µl of complete growth medium (supplemented with 10% FBS) was added to the lower chamber, and 50 µl of serum-free growth medium was added to the upper chambers of the CIM plate. The plates were incubated at 37 °C under 5% CO2 saturation for 1 h prior to insertion into the xCELLigence platform. To initiate a transwell migration experiment, the cells were detached with trypsin (Corning®), resuspended in the serum-free growth medium, and seeded in the upper chamber at a density of 1 × 10^4 cells in 100 µl per well that was previously treated with the compounds. The impedance of the microelectrode array was monitored and converted to CI. Normalisation values were recorded using the RTCA Software 1.2.1. Readouts were performed every 30 min for 72 h.

“Also recorded” adds a separate entry of the source.

As for “4-[(6-[(1,2-Dicarba-closo-dodecaborane-1-yl)ethylamino]hexyl)amino]-3-nitro-N-[2-(N-pyrrolidinyl)ethyl]-1,8-naphthalimide [Compound 36]”, in assay [1], the bathochromic effect turned out to be 7 nm and the “Kb compared to that of mitonafide” value was “similar”. Moreover, the “change in the CD spectra of ct-DNA” value in assay [2] was “disturbed”. The “ROS generation (green fluorescence intensity)” value (“ROS generation” below) in assay [3] was “weakest ROS inductor”. This substance also registered an early apoptotic cells in assay [4] of 12.55%. Also, the “ΔTm ct-DNA” value in assay [5] is 10.00 °C.

Regarding “4-[(6-[(1,2-Dicarba-closo-dodecaborane-1-yl)ethylamino]hexyl)amino]-N-[2-(dimethylamino)ethyl]-3-nitro-1,8-naphthalimide [Compound 34]”, the bathochromic effect in assay [1] is reported as 9 nm. For the same substance, in assay [2], the “change in the CD spectra of ct-DNA” value is reported as “remarkably disturbed”. Moreover, the “ROS generation” value in assay [3] is reported as “increased approximately twofold”. The early apoptotic cells in assay [4] came to 9.12%. For the same substance, in assay [5], the “ΔTm ct-DNA” value amounted to 11.67 °C. Also, the “effect on migration of HepG2 cells (slope of cell index, first 24 h)” value (“effect … (slope of cell index, first 24 h)” below) in assay [6] is “highest influence on the migration activity”.

In assay [1], “4-[(6-[(1,7-Dicarba-closo-dodecaborane-1-yl)ethylamino]hexyl)amino]-3-nitro-N-[2-(N-pyrrolidinyl)ethyl]-1,8-naphthalimide [Compound 37]” had a bathochromic effect of 8 nm. Moreover, the “change in the CD spectra of ct-DNA” value in assay [2] is listed as “remarkably disturbed”. Moreover, the “ROS generation” value in assay [3] is reported as “increased approximately twofold”. The substance also returned an early apoptotic cells in assay [4] of 12.56%. Moreover, the “ΔTm ct-DNA” value in assay [5] stood at 13.00 °C. In addition, in assay [6], the “effect … (slope of cell index, first 24 h)” value was “highest influence on the migration activity”.

For “4-[(6-[(1,7-Dicarba-closo-dodecaborane-1-yl)ethylamino]hexyl)amino]-N-[2-(dimethylamino)ethyl]-3-nitro-1,8-naphthalimide [Compound 35]”, in assay [1], the bathochromic effect is listed as 10 nm and the “Kb compared to that of mitonafide” value is reported as “approximately 1.5 fold”. Besides, in assay [2], the “change in the CD spectra of ct-DNA” value is “remarkably disturbed”. For the same substance, the “ROS generation” value in assay [3] is listed as “moderate effect”. Also, in assay [4], the “necrosis (PI positive cells)” value is on record as 55.75% and the early apoptotic cells came out at 6.7%. Moreover, in assay [5], the “ΔTm ct-DNA” value amounted to 13.00 °C. Moreover, in assay [6], the “effect … (slope of cell index, first 24 h)” value is on record as “highest influence on the migration activity; also recorded: highest impairment”.
